Here are results for 47 compounds from US20090227607A1, “DEAZAPURINES USEFUL AS INHIBITORS OF JANUS KINASES” (priority 2006, published 2009).

The target in one assay is T1, JAK3 (Homo sapiens, UniProt P52333).
T1 sequence (P52333 1-1124): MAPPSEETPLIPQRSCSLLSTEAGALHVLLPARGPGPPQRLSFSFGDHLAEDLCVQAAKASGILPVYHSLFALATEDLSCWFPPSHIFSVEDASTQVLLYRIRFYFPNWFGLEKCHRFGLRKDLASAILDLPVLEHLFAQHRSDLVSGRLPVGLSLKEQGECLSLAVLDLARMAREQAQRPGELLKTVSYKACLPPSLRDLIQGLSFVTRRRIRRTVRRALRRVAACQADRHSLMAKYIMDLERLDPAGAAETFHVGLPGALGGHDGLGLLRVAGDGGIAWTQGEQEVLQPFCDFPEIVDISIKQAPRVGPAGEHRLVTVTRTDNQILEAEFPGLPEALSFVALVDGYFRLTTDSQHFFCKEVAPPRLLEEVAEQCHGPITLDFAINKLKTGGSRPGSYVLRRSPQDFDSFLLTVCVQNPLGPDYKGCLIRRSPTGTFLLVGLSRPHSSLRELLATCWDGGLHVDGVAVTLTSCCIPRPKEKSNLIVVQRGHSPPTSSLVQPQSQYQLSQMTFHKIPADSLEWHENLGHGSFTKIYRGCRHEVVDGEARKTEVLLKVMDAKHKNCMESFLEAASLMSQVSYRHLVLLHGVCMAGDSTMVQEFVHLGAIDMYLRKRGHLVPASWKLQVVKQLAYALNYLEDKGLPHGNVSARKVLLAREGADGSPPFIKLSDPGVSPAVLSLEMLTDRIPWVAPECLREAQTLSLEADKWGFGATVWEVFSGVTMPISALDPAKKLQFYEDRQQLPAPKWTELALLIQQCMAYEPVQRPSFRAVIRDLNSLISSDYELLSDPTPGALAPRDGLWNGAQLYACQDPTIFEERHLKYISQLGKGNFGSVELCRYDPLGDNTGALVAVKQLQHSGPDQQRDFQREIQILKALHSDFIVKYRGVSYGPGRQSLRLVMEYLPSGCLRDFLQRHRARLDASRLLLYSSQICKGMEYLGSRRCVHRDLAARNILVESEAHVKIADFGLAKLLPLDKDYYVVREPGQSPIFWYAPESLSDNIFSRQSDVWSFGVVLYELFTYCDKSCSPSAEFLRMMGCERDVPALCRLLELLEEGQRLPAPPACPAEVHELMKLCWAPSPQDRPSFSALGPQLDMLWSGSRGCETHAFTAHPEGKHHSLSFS
Briefly: JAK3 Inhibition Assay. The format is biochemical. As to conditions: 1 μM poly(Glu)4Tyr, 5 μM ATP, 1 nM JAK3, 25° C.; read-out: JAK3 enzyme inhibition data (Ki). The gist of the method: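 Radiometric JAK3 (1 nM) reaction with 5 μM [33P]ATP and 1 μM poly(Glu)4Tyr in HEPES pH 7.4 buffer, run for 20 min at 25 °C. Reactions were stopped with TCA and filter-captured, and 33P incorporation was counted; values reported as Ki.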

Another assay deals with JAK-2 enzyme (Homo sapiens, UniProt O60674). As to the kind of experiment: JAK2 Inhibition Assay. Particulars: 15 μM poly(Glu)4Tyr, 12 μM ATP, 25° C. The format is biochemical. The gist of the method: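 JAK2 kinase in HEPES pH 7.4 buffer with MgCl2, DTT, NaCl and BSA; final 15 μM poly(Glu)4Tyr and 12 μM [33P]ATP. Enzyme added to start, 20 min at 25 °C, TCA stop, filter capture and scintillation count of 33P incorporation; Ki values.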
JAK-2 enzyme, sequence (O60674 whole entry, species assumed): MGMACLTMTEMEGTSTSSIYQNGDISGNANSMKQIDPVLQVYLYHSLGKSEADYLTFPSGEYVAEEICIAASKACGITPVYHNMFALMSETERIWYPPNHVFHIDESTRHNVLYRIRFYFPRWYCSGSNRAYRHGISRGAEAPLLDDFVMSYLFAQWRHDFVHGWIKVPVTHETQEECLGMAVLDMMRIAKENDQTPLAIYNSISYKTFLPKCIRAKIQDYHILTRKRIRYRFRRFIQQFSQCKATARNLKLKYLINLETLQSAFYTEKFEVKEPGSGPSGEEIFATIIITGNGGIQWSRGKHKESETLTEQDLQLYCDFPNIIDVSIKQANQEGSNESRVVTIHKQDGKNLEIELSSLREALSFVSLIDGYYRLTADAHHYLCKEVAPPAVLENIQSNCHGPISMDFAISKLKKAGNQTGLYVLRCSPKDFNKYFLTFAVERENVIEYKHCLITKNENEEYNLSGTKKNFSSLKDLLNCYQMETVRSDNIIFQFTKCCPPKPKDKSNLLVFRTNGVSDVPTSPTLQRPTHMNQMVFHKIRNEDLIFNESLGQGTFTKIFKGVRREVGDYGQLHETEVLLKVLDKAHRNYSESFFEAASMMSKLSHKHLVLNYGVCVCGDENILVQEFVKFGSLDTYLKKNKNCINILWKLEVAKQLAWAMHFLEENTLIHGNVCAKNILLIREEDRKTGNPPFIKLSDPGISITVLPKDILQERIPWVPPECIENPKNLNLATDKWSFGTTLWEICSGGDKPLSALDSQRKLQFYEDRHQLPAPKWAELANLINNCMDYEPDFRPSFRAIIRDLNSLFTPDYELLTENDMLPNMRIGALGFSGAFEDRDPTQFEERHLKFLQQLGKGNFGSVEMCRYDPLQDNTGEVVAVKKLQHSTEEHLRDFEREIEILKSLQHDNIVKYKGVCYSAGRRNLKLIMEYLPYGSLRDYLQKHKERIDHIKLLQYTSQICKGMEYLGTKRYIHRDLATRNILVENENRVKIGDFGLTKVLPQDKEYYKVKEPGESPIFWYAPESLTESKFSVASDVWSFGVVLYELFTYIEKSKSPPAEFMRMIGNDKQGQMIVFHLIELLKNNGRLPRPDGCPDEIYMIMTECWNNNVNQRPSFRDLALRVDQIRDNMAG

What is called Ki is a dissociation constant, usually derived from enzyme kinetics or from competition with a known ligand. In the case of `C[C@H](O)CNC(=O)c1cc(-c2ncnc3[nH]ccc23)c[nH]1` [Compound 140], the Ki on JAK3 is 100 to 500 nM; at JAK-2 enzyme, below 100 nM.

In the case of `CC(C)(CC(=O)O)CC(=O)Nc1nc(-c2ncnc3[nH]ccc23)cs1` [Compound 145], the inhibition constant Ki on JAK3 and on JAK-2 enzyme was 100 to 500 nM throughout.

For the compound `O=C(O)CCC(=O)Nc1nc(-c2ncnc3[nH]ccc23)cs1` [Compound 146], the Ki at JAK3 and on JAK-2 enzyme was 100 to 500 nM throughout.

Regarding `COC(=O)C1CC=CCC1C(=O)Nc1nc(-c2ncnc3[nH]ccc23)cs1` (stereo not shown) [Compound 149], the Ki on JAK3 is 100 to 500 nM; on JAK-2 enzyme, below 100 nM.

For `COC(=O)C1C2C=CC(C2)C1C(=O)Nc1nc(-c2ncnc3[nH]ccc23)cs1` (stereo not shown) [Compound 155], the values for the inhibition constant (Ki) at JAK3 and on JAK-2 enzyme were 100 to 500 nM and below 100 nM, respectively.

Consider `Cc1c[nH]c2ncnc(-c3cnn(C)c3)c12` [Compound 160], for which the inhibitory constant (Ki) on JAK3 and on JAK-2 enzyme was 100 to 500 nM each time.

With `CCCn1cc(-c2ncnc3[nH]cc(C)c23)cn1` [Compound 161], the inhibition constant (Ki) at JAK3 and on JAK-2 enzyme was 100 to 500 nM in each case.

With `Cc1c[nH]c2ncnc(-c3cnn(CC(C)C)c3)c12` [Compound 162], the values for the Ki on JAK3 and on JAK-2 enzyme were 100 to 500 nM and below 100 nM, respectively.

Turning to `Cc1c[nH]c2ncnc(-c3cnn(CCC(C)C)c3)c12` [Compound 163], the results for the inhibition constant (Ki) at JAK3 and on JAK-2 enzyme were 100 to 500 nM and below 100 nM, respectively.

Consider `CC(C)CCn1cc(-c2ncnc3[nH]cc(Cl)c23)cn1` [Compound 164], for which the Ki on JAK3 is 100 to 500 nM; on JAK-2 enzyme, below 100 nM.

In the case of `CCCn1cc(-c2ncnc3[nH]cc(Cl)c23)cn1` [Compound 165], the inhibition constant (Ki) on JAK3 is 100 to 500 nM; on JAK-2 enzyme, below 100 nM.

Take `CC(C)Cn1cc(-c2ncnc3[nH]cc(Cl)c23)cn1` [Compound 166]: the Ki at JAK3 is 100 to 500 nM; at JAK-2 enzyme, below 100 nM.

As to `O=C1CCC(C(=O)Nc2nc(-c3ncnc4[nH]ccc34)cs2)C1` (stereo not shown) [Compound 167], the Ki at JAK3 and at JAK-2 enzyme was below 100 nM throughout.

With `CC(=O)NCCCC(=O)Nc1nc(-c2ncnc3[nH]ccc23)cs1` [Compound 168], the Ki is 100 to 500 nM on JAK3 and below 100 nM at JAK-2 enzyme.

Regarding `CC(=O)N1CCC(C(=O)Nc2nc(-c3ncnc4[nH]ccc34)cs2)CC1` [Compound 169], the Ki at JAK3 and on JAK-2 enzyme was below 100 nM each time.

In the case of `O=C(CCC(=O)C1CC1)Nc1nc(-c2ncnc3[nH]ccc23)cs1` [Compound 170], the inhibition constant (Ki) on JAK3 was 100 to 500 nM; at JAK-2 enzyme it was below 100 nM.

Turning to `COC(=O)N1CCC(C(=O)Nc2nc(-c3ncnc4[nH]ccc34)cs2)CC1` [Compound 171], the inhibition constant (Ki) on JAK3 and at JAK-2 enzyme was below 100 nM throughout.

Consider `CN1CC(C(=O)Nc2nc(-c3ncnc4[nH]ccc34)cs2)CC1=O` (stereo not shown) [Compound 172], for which the Ki on JAK3 was 100 to 500 nM; on JAK-2 enzyme, below 100 nM.

As to `O=C(Nc1nc(-c2ncnc3[nH]ccc23)cs1)C1CCN(C(=O)c2ccccc2)CC1` [Compound 173], the Ki on JAK3 and on JAK-2 enzyme was below 100 nM throughout.

`CC(=O)NCCC(=O)Nc1nc(-c2ncnc3[nH]ccc23)cs1` [Compound 174]: the values for the Ki on JAK3 and at JAK-2 enzyme were 100 to 500 nM and below 100 nM, respectively.

Turning to `COc1ccc(C(=O)Nc2nc(-c3ncnc4[nH]ccc34)cs2)cc1` [Compound 175], the values for the Ki at JAK3 and at JAK-2 enzyme were 100 to 500 nM and below 100 nM, respectively.

In the case of `O=C(Nc1nc(-c2ncnc3[nH]ccc23)cs1)C1CCCNC1` (stereo not shown) [Compound 176], the Ki at JAK3 and at JAK-2 enzyme was below 100 nM each time.

As to `CC(C)(C)OC(=O)N1CCCC(C(=O)Nc2nc(-c3ncnc4[nH]ccc34)cs2)C1` (stereo not shown) [Compound 177], the inhibition constant Ki at JAK3 and at JAK-2 enzyme was 100 to 500 nM each time.

As to `CC(C)(C)OC(=O)N1CCC(C(=O)Nc2nc(-c3ncnc4[nH]ccc34)cs2)CC1` [Compound 178], the inhibitory constant (Ki) at JAK3 and on JAK-2 enzyme was 100 to 500 nM each time.

Regarding `CS(=O)(=O)N1CCC(C(=O)Nc2nc(-c3ncnc4[nH]ccc34)cs2)CC1` [Compound 179], the inhibitory constant (Ki) at JAK3 and on JAK-2 enzyme was below 100 nM in each case.

As for `O=C1[C@H]2CCCC[C@@H]2C(=O)N1c1nc(-c2ncnc3[nH]ccc23)cs1` [Compound 180], the inhibition constant (Ki) at JAK3 and on JAK-2 enzyme was 100 to 500 nM throughout.

In the case of `O=C1[C@H]2CCCC[C@H]2C(=O)N1c1nc(-c2ncnc3[nH]ccc23)cs1` [Compound 181], the inhibitory constant (Ki) on JAK3 and on JAK-2 enzyme was 100 to 500 nM each time.

Take `COC(=O)[C@@H]1CC[C@H](C(=O)Nc2nc(-c3ncnc4[nH]ccc34)cs2)C1` [Compound 182]: the inhibition constant Ki on JAK3 was 100 to 500 nM; on JAK-2 enzyme, below 100 nM.

On to `N#CCCN(CC1CC1)C(=O)c1coc(-c2ncnc3[nH]ccc23)c1` [Compound 183], for which the inhibitory constant (Ki) at JAK3 and on JAK-2 enzyme was below 100 nM throughout.

Turning to `CCC1CC[C@@H](CC)N1C(=O)c1cc(-c2ncnc3[nH]ccc23)c[nH]1` (stereo partly shown) [Compound 184], the Ki on JAK3 is 100 to 500 nM; on JAK-2 enzyme, below 100 nM.

Regarding `CC[C@@H]1CC[C@@H](CC)N1C(=O)c1cc(-c2ncnc3[nH]ccc23)c[nH]1` [Compound 185], the inhibitory constant (Ki) on JAK3 was 100 to 500 nM; on JAK-2 enzyme, below 100 nM.

Take `O=C(c1cc(-c2ncnc3[nH]ccc23)c[nH]1)N(CC1CCCC1)CC(F)(F)F` [Compound 186]: the results for the Ki on JAK3 and at JAK-2 enzyme were 100 to 500 nM and below 100 nM, respectively.

With `CC(C)CN(CCC#N)C(=O)c1cc(-c2ncnc3[nH]ccc23)c[nH]1` [Compound 187], the inhibitory constant (Ki) on JAK3 and at JAK-2 enzyme was below 100 nM in each case.

In the case of `O=C(c1cc(-c2ncnc3[nH]ccc23)c[nH]1)N(CCC(F)(F)F)C1CCCC1` [Compound 188], the figures for the Ki at JAK3 and on JAK-2 enzyme were 100 to 500 nM and below 100 nM, respectively.

For the compound `CC#CCN(CC(C)C)C(=O)c1cc(-c2ncnc3[nH]ccc23)c[nH]1` [Compound 189], the inhibition constant Ki at JAK3 and at JAK-2 enzyme was below 100 nM each time.

With `CC#CCN(C(=O)c1cc(-c2ncnc3[nH]ccc23)c[nH]1)C1CCCCC1` [Compound 190], the results for the inhibition constant Ki on JAK3 and at JAK-2 enzyme were 500 to 5000 nM and 100 to 500 nM, respectively.

Consider `O=C(c1ccc(-c2ncnc3[nH]ccc23)o1)N(CC1CCCC1)CC(F)(F)F` [Compound 191], for which the Ki on JAK3 and at JAK-2 enzyme was below 100 nM each time.

For the compound `CC(C)CN(CCC#N)C(=O)c1ccc(-c2ncnc3[nH]ccc23)o1` [Compound 192], the Ki on JAK3 and on JAK-2 enzyme was below 100 nM in each case.

Turning to `O=C(c1ccc(-c2ncnc3[nH]ccc23)o1)N(CCC(F)(F)F)C1CCCC1` [Compound 193], the Ki on JAK3 and at JAK-2 enzyme was below 100 nM each time.

Turning to `CC[C@@H]1CC[C@@H](CC)N1C(=O)c1ccc(-c2ncnc3[nH]ccc23)o1` [Compound 194], the inhibition constant (Ki) at JAK3 and at JAK-2 enzyme was below 100 nM throughout.

Turning to `O=C(c1coc(-c2ncnc3[nH]ccc23)c1)N(CC1CC1)CC(F)(F)F` [Compound 195], the inhibition constant Ki at JAK3 was 100 to 500 nM; on JAK-2 enzyme it was below 100 nM.

`O=C(c1coc(-c2ncnc3[nH]ccc23)c1)N(CCC(F)(F)F)CC1CC1` [Compound 196]: the figures for the inhibition constant Ki at JAK3 and on JAK-2 enzyme were 100 to 500 nM and below 100 nM, respectively.

With `CC1CC[C@@H](C)N1C(=O)c1coc(-c2ncnc3[nH]ccc23)c1` (stereo partly shown) [Compound 197], the Ki at JAK3 is 500 to 5000 nM; on JAK-2 enzyme it was below 100 nM.

In the case of `CCCCN(CC)C(=O)c1cc(-c2ncnc3[nH]cc(Cl)c23)c[nH]1` [Compound 198], the inhibitory constant (Ki) on JAK3 and on JAK-2 enzyme was below 100 nM throughout.

Regarding `CCN(Cc1ccccc1)C(=O)c1cc(-c2ncnc3[nH]cc(Cl)c23)c[nH]1` [Compound 199], the Ki at JAK3 and at JAK-2 enzyme was below 100 nM throughout.

Take `COCCN(C)C(=O)c1cc(-c2ncnc3[nH]cc(C)c23)c[nH]1` [Compound 200]: the values for the Ki on JAK3 and on JAK-2 enzyme were 500 to 5000 nM and 100 to 500 nM, respectively.

On to `CCCCN(CC)C(=O)c1cc(-c2ncnc3[nH]cc(C)c23)c[nH]1` [Compound 201], for which the values for the inhibition constant (Ki) on JAK3 and on JAK-2 enzyme were 100 to 500 nM and below 100 nM, respectively.
